Columns and labels:
[1] = system: primary cultured cells of mouse fetus-derived dorsal root ganglia (DRGs); assay: Suppression of axonal degeneration after axotomy in DRG explant culture; type: cell-based; settings: minimum concentration at which axonal degeneration was suppressed (DI 0.3 or less), 24 hours after axotomy; for minimal effective concentration: Mus musculus, read-out: Evaluation on protection against degeneration
Summary of the method: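 Embryonic ICR mouse DRG explants were cultured 7–8 days in nicotinamide-free neuronal medium with NGF, then axotomized by removing the cell bodies. Compound (100 pM–10 µM final, 0.1% DMSO) was added within 30 min, and neurites were imaged 24 h later. The result is the lowest concentration giving degeneration index ≤0.3.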

[2] = molecular target: T1, nicotinamide phosphoribosyl transferase (NAMPT) (Homo sapiens, UniProt P43490); assay: NAMPT activity measurement (NMN fluorescence detection); type: biochemical; settings: NAMPT recombinant protein, 10 µM Nam; for IC50: read-out: Evaluation on NAMPT inhibitory
T1 construct: purchased Medical & Biological Laboratories Co., Ltd. (MBL)
T1 sequence (P43490 whole entry, species assumed): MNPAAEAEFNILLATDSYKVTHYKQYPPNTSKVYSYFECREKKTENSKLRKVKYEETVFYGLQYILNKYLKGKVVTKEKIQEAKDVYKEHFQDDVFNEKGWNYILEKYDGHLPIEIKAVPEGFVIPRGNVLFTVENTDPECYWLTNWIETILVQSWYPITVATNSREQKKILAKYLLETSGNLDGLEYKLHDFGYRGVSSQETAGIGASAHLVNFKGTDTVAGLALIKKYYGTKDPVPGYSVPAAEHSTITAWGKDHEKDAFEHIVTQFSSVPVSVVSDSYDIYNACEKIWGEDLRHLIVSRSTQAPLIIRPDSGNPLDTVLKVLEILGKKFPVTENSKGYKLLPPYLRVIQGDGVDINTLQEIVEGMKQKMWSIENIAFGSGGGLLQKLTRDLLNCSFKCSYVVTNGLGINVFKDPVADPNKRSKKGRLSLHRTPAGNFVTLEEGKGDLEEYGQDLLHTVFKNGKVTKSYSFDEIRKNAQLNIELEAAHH
Summary of the method: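 Recombinant NAMPT reacted with 10 µM Nam, 0.5 µM PRPP, 2 µM ATP in Tris pH 7.4 buffer with MgCl2, DTT, BSA; product NMN quantified by fluorescence (ex 421/em 480 nm) after derivatization with 2-acetylbenzofuran. Compounds at 3 nM–10 µM; control-normalized signal used for IC50.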

[3] = molecular target: T2, hSARM1 (Homo sapiens, UniProt Q6SZW1); assay: Human SARM1 activity measurement in HEK293 cells transiently transfected with ΔN-hSARM1 (PC6 fluorescent probe); type: cell-based; set-up: expressed in transfected cells; host or cells: HEK293, pcDNA3 expression vector; settings: inhibition rate; compound 30 µM; PC6 50 µM; HEK293 cells expressing ΔN-hSARM1; approximately 48 hours from transfection; read-out: Evaluation on hSARM1 inhibitory
T2 sequence (Q6SZW1 28-724): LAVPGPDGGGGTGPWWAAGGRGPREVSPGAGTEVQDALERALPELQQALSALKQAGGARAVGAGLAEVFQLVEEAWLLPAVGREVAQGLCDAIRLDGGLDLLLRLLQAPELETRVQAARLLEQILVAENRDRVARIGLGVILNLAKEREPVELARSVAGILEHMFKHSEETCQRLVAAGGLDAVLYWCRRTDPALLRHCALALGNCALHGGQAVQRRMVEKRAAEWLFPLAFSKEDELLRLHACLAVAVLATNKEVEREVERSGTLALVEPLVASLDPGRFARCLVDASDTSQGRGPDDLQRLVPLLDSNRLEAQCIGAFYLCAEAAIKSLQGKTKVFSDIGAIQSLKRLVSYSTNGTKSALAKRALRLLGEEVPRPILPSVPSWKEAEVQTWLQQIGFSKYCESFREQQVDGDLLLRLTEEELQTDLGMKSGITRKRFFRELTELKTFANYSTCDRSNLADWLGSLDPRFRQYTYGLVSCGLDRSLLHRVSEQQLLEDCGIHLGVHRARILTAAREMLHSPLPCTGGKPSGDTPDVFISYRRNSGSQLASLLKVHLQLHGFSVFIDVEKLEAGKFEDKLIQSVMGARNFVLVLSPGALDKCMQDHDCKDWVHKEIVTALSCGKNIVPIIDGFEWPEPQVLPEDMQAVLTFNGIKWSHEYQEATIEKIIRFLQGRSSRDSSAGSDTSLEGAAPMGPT
Summary of the method: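 HEK293 cells in nicotinamide-free DMEM with 5 μM nicotinamide, transiently transfected with mitochondrial-targeting-deleted ΔN-hSARM1; PC6 base-exchange fluorescent probe (50 μM) plus compound (30 μM) added ~8 h post-transfection. Fluorescence (ex 405/em 525 nm) read ~48 h from transfection; inhibition % versus transfected DMSO control, untransfected background subtracted.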

SMILES	minimal effective concentration [1]	IC50 [2]	inhibition at 30 µM [3]	Evaluation on NAMPT inhibitory [2]	Evaluation on protection against degeneration [1]
O=C(/C=C/c1cccnc1)Nc1ccc(CNC(=O)c2cccnc2)cn1 [compound 75]	≤ 0.01 µM	≥ 0.1 µM	> 75%		
O=C(NCCCCCCCCOCCOCCOCCO)c1cccnc1 [compound 8]	≤ 0.01 µM	≥ 0.1 µM	> 50%		
O=C(NCCOCCOCCNC(=O)c1cccnc1)c1cccnc1 [compound 34]	≤ 0.01 µM		> 75%	○	
O=C(/C=C/c1cccnc1)Nc1cccc(NC(=O)/C=C/c2cccnc2)n1 [compound 59]			> 25%	○	A (A ≤ 0.01 µM)
C=Cc1ccc(C(=O)Nc2ccc(CNC(=O)c3cccnc3)cn2)cc1 [compound 80]	≤ 0.01 µM	≥ 0.1 µM	> 75%		
O=C(NCCCOCCOCCCNC(=O)c1ccc2ncccc2c1)c1cccnc1 [Compound 188]	≤ 0.01 µM		> 25%	○	
O=C(/C=C/c1cccnc1)NCCOCCNC(=O)/C=C/c1cccnc1 [compound 37]	0.01 to 0.1 µM		> 75%	○	
O=C(CCc1ccccc1)NCc1ccc(CNC(=O)c2cccnc2)cc1 [compound 65]	≤ 0.01 µM		> 75%	○	
NCCOCCOCCCCCCCCNC(=O)c1cccnc1 [compound 97]	≤ 0.01 µM	≥ 0.1 µM	> 75%		
O=C(CNC(=O)c1cccnc1)NCCNC(=O)CNC(=O)c1cccnc1 [compound 40]	0.1 to 1 µM		> 10%	○	
O=C(NCc1ccc(NC(=O)C2CCOCC2)cc1)c1cccnc1 [compound 108]	≤ 0.01 µM	≥ 0.1 µM	> 75%		
Cc1cc(C)cc(C(=O)Nc2ccc(CNC(=O)c3cccnc3)cn2)c1 [Compound 136]	≤ 0.01 µM		> 75%	○	
O=C(NCc1ccc(NC(=O)c2ccc(C(F)(F)F)cc2)nc1)c1cccnc1 [compound 83]	≤ 0.01 µM		> 50%	○	
O=C(NCCCNS(=O)(=O)c1ccccc1[N+](=O)[O-])c1cccnc1 [compound 63]	0.1 to 1 µM		> 10%	○	
O=C(NCc1cccc(CNC(=O)c2cccnc2)n1)c1ccccc1 [Compound 149]	0.1 to 1 µM		> 25%	○	
CCC(C)(C)C(=O)Nc1ccc(CNC(=O)c2cccnc2)cn1 [compound 88]	0.01 to 0.1 µM		> 50%	○	
O=C(NCc1ccc(NC(=O)c2ccccc2)nc1)c1cnc2ccccc2c1 [Compound 140]	0.1 to 1 µM		> 10%	○	
COC(=O)c1ccc(OCCOCCNC(=O)/C=C/c2cccnc2)cc1 [compound 31]	≤ 0.01 µM	≥ 0.1 µM	> 75%		

SMILES	minimal effective concentration [1]	IC50 [2]	inhibition at 30 µM [3]	Evaluation on NAMPT inhibitory [2]	Evaluation on protection against degeneration [1]
CC(C)C(=O)N(C(=O)C(C)C)c1ccc(CNC(=O)c2cccnc2)cn1 [Compound 172]	≤ 0.01 µM		> 10%	○	
O=C(NCc1ccc(NC(=O)c2ccc3ncccc3c2)nc1)c1cccnc1 [Compound 122]	≤ 0.01 µM		> 75%	○	
O=C(NCc1ccc(NC(=O)c2ccccn2)nc1)c1cccnc1 [Compound 125]	≤ 0.01 µM	≥ 0.1 µM	> 75%		
O=C(NCCCCCCCCOCCO)c1cccnc1 [compound 4]			> 75%	○	A (A ≤ 0.01 µM)
CC(C)C(=O)Nc1ccc(CNC(=O)c2cccnc2)cn1 [compound 72]	0.01 to 0.1 µM		> 50%	○	
O=C(NCc1ccc(NC(=O)C2CCCCC2)nc1)c1cccnc1 [Compound 113]	≤ 0.01 µM		> 75%	○	
CC(C)(C)OC(=O)NCCCOCCOCCCNC(=O)c1cccnc1 [compound 70]	≤ 0.01 µM		> 50%	○	
N#Cc1ccc(OCC(=O)Nc2ccc(CNC(=O)c3cccnc3)cn2)cc1 [Compound 174]	0.01 to 0.1 µM	≥ 0.1 µM	> 75%		
CCCCCC(=O)Nc1ccc(CNC(=O)c2cccnc2)cn1 [Compound 160]	≤ 0.01 µM	≥ 0.1 µM	> 75%		
O=C(/C=C/c1cccnc1)NCCOCCOc1ccccc1 [compound 17]	≤ 0.01 µM	≥ 0.1 µM	> 75%		
N#Cc1ccc(/C=C/C(=O)Nc2ccc(CNC(=O)c3cccnc3)cn2)cc1 [Compound 166]	≤ 0.01 µM		> 75%	○	
O=C(NCc1ccc(NC(=O)c2ccc(F)cc2)nc1)c1cccnc1 [Compound 117]	≤ 0.01 µM		> 75%	○	
O=C(NCCOCCOc1cccc(O)c1)c1cccnc1 [compound 27]	0.01 to 0.1 µM	≥ 0.1 µM	> 75%		
Cc1ccc(/C=C/C(=O)Nc2ccc(CNC(=O)c3cccnc3)cn2)cc1 [Compound 179]	≤ 0.01 µM		> 75%	○	
O=C(Cc1ccc2ccccc2c1)Nc1ccc(CNC(=O)c2cccnc2)cn1 [Compound 123]	≤ 0.01 µM	≥ 0.1 µM	> 75%		
O=C(NCc1ccc(NC(=O)c2ccccc2C(F)(F)F)nc1)c1cccnc1 [compound 81]	0.01 to 0.1 µM		> 50%	○	
CCC(C)C(=O)Nc1ccc(CNC(=O)c2cccnc2)cn1 (stereo not drawn) [Compound 161]	≤ 0.01 µM		> 10%	○	

From patent EP4793271A1, “NEUROPROTECTIVE AGENT” (National Center of Neurology and Psychiatry, priority 2023, dated 2025)
